Laboratory results taken from US20250154154A1 (Relay Binney Street, 2nd Floor, priority 2020, published 2025).
Counter-ions that a name gives are not always drawn.

Key:
RBE cells = experiment: Cell Viability Protocol (CellTiterGlo), RBE cells; format: cell-based; details: RBE or SNU-1079 cells, 72 or 120 hour, cell line and time not given
Method in brief: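 After 72 h or 120 h compound exposure at 37° C, viability was read by CellTiterGlo as % of DMSO vehicle, with IC50 fitted by a 4-parameter curve. Cells had been seeded at 1200/well in 10% FBS RPMI 1640 and allowed 24 h before dosing.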

SRC = SRC (Homo sapiens, UniProt P12931); experiment: SRC Biochemical Assay Protocol (microfluidic mobility shift assay, FLPeptide4 substrate)
Method in brief: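 Mobility-shift readout of phosphorylated FLPeptide4 (1.5 μM) after 90 min kinase reaction with 50 μM ATP and 0.26 nM SRC in pH 7.4 HEPES buffer. Compounds, tested 0.0017–100 μM, were preincubated 30 min with enzyme and peptide; IC50 from 4-parameter logistic fit versus neutral controls.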

[1] = test system: phospho-S6RP (Ser 235/236) in RBE cells; experiment: Cellular Proliferation Protocol (cellular phospho-S6RP HTRF), RBE cells; format: cell-based; details: 6 hours treatment, RBE or SNU-1079 cells, cell line not given
Method in brief: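 Phospho-S6RP (Ser 235/236) was quantified by HTRF in lysed RBE cells (2000/well) after a 6 h treatment at 37° C, with overnight antibody incubation at room temperature. IC50 values came from 4-parameter dose-response fits relative to DMSO vehicle.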

SRC, sequence (P12931 whole entry, species assumed): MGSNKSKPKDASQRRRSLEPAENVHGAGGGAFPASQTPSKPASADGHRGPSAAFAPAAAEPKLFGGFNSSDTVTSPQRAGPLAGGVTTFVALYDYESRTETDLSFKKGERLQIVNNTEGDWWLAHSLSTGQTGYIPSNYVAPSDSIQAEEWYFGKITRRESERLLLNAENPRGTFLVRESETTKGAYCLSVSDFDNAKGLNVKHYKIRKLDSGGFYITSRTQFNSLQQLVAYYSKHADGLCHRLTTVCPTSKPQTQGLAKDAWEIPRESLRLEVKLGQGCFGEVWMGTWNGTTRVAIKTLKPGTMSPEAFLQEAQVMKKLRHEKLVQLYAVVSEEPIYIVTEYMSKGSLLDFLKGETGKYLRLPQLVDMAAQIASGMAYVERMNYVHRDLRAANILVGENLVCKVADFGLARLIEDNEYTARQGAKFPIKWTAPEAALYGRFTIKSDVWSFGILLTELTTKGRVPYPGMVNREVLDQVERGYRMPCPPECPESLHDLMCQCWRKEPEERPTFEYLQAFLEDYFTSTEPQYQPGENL

Row | Compound | IC50 (RBE cells) [nM] | IC50 (SRC) [nM] | IC50 [1] [nM] | IC50 ([1]; 6 h) [nM]
1 | C=CC(=O)N1CC[C@@H](N2CC(C#Cc3c(-c4ccc(Cl)c(CO)c4)c4c(N)ncnc4n3C)C2)[C@@H](O)C1 [II-59] | 1000 to 10000 | 10 to 1000 | 10 to 1000 | –
2 | COCCN(C)C/C=C/C(=O)N1C[C@@H]2[C@@H](C#Cc3c(-c4ccc(Oc5cccc(F)c5)cc4)c4c(N)ncnc4n3C)[C@@H]2C1 [II-232, (E)-1-((1R,5S,6s)-6-((4-amino-5-(4-(3-fluorophenoxy)phenyl)-7-methyl-7H-pyrrolo[2,3-d]pyrimidin-6-yl)ethynyl)-3-azabicyclo[3.1.0]hexan-3-yl)-4-((2-methoxyethyl) (methyl)amino)but-2-en-1-one] | 10 to 1000 | 10 to 1000 | – | 10 to 1000
3 | C=CC(=O)N1CCC(N2CC(C#Cc3c(-c4ccc(C(F)(F)F)cc4)c4c(N)ncnc4n3C)C2)CC1 [II-102] | 10 to 1000 | 10 to 1000 | 10 to 1000 | –
4 | C=CC(=O)N1CCC(N2CC(C#Cc3c(-c4ccc(Oc5ccccc5)cc4)c4c(N)ncnc4n3C3CC(=O)N(C)C3)C2)CC1 (stereo not drawn) [II-213, 4-(6-((1-(1-acryloylpiperidin-4-yl)azetidin-3-yl)ethynyl)-4-amino-5-(4-phenoxyphenyl)-7H-pyrrolo[2,3-d]pyrimidin-7-yl)-1-methylpyrrolidin-2-one] | 1000 to 10000 | 1000 to 10000 | – | 1000 to 10000
5 | C=CC(=O)N1CC[C@H](N2CC(C#Cc3c(-c4ccc(Oc5ccccc5)c(OC)c4)c4c(N)ncnc4n3C)C2)[C@H](O)C1 [II-247, 1-((3R,4S)-4-(3-((4-amino-5-(3-methoxy-4-phenoxyphenyl)-7-methyl-7H-pyrrolo[2,3-d]pyrimidin-6-yl)ethynyl)azetidin-1-yl)-3-hydroxypiperidin-1-yl)prop-2-en-1-one] | ≤ 10 | ≤ 10 | – | ≤ 10
6 | C=CC(=O)N1CCC(C#Cc2c(-c3ccc(Oc4ccccc4)cc3)c3c(N)ncnc3n2C2CCN(C)C2=O)CC1 (stereo not drawn) [Example I-56] | 10 to 1000 | 10 to 1000 | – | 10 to 1000
7 | C=CC(=O)N1CC[C@H](N2CC(C#Cc3c(-c4cccc(Cl)c4OC)c4c(N)ncnc4n3C)C2)[C@H](O)C1 [II-266] | 1000 to 10000 | 10 to 1000 | – | 1000 to 10000
8 | Cn1c(C#CC2CCCN(C(=O)/C=C/CN3CCCCC3)CC2)c(-c2ccc(Oc3ccccc3)cc2)c2c(N)ncnc21 (stereo not drawn) [II-180, (E)-1-(4-((4-amino-7-methyl-5-(4-phenoxyphenyl)-7H-pyrrolo[2,3-d]pyrimidin-6-yl)ethynyl)azepan-1-yl)-4-(piperidin-1-yl)but-2-en-1-one formate] | 1000 to 10000 | 10 to 1000 | – | 1000 to 10000
9 | C=CC(=O)N1CC[C@@H](N2CC(C#Cc3c(-c4cc(OC)c(Cl)c(OC)c4)c4c(N)ncnc4n3C)C2)[C@@H](O)C1 [II-60] | 10 to 1000 | 10 to 1000 | 10 to 1000 | –
10 | C=CC(=O)N1CC[C@H](N2CC(C#Cc3c(-c4ccc(Cl)c(C)n4)c4c(N)ncnc4n3C(C)C)C2)[C@H](F)C1 [II-328] | 10 to 1000 | 10 to 1000 | 10 to 1000 | –
11 | C=CC(=O)N1CCC(O)(C#Cc2c(-c3ccc(Oc4cccc(C)n4)c(OC)c3)c3c(N)ncnc3n2C)CC1 [II-304, formate] | 10 to 1000 | 10 to 1000 | – | 10 to 1000
12 | C=CC(=O)N1CC[C@@H](N2CC(C#Cc3c(-c4ccc(Oc5nccs5)cc4)c4c(N)ncnc4n3C)C2)[C@@H](O)C1 [II-21] | 10 to 1000 | 10 to 1000 | 10 to 1000 | –
13 | C=CC(=O)N1CCC(N2CC(C#Cc3c(-c4ccc(OC(C)C)c(OC)c4)c4c(N)ncnc4n3C)C2)CC1 [II-101] | 10 to 1000 | 10 to 1000 | 10 to 1000 | –
14 | Cc1ccnc(Oc2ccc(-c3c(C#C[C@@H]4[C@H]5CN(C(=O)/C=C/CN6CCC(F)C6)C[C@@H]45)n(C)c4ncnc(N)c34)cc2)c1 (stereo partly drawn) [II-240, (E)-1-((1R,5S,6s)-6-((4-amino-7-methyl-5-(4-((4-methylpyridin-2-yl)oxy)phenyl)-7H-pyrrolo[2,3-d]pyrimidin-6-yl)ethynyl)-3-azabicyclo[3.1.0]hexan-3-yl)-4-(3-fluoropyrrolidin-1-yl)but-2-en-1-one] | 10 to 1000 | 10 to 1000 | 10 to 1000 | –
15 | C=CC(=O)NC1CCC(C#Cc2c(-c3ccc(Oc4ccccc4)cc3)c3c(N)ncnc3n2C(C)C)CC1 (stereo not drawn) [Example I-20] | 10 to 1000 | 10 to 1000 | – | ≤ 10
16 | C=CC(=O)N1CC[C@H](N2CC(C#Cc3c(-c4ccc(Oc5ccccc5)cc4)c4c(N)ncnc4n3C)C2)[C@H](F)C1 [II-170, 1-((3R,4S)-4-(3-((4-amino-7-methyl-5-(4-phenoxyphenyl)-7H-pyrrolo[2,3-d]pyrimidin-6-yl)ethynyl)azetidin-1-yl)-3-fluoropiperidin-1-yl)prop-2-en-1-one] | ≤ 10 | 10 to 1000 | – | ≤ 10
17 | C=CC(=O)N1CCC(N2CC(F)(C#Cc3c(-c4ccc(Oc5cccc(C)n5)c(OC)c4)c4c(N)ncnc4n3C)C2)CC1 [II-243] | 10 to 1000 | 10 to 1000 | – | 10 to 1000
18 | C=CS(=O)(=O)N1CC[C@@H](N2CC(C#Cc3c(-c4ccc(Oc5ccccc5)c(OC)c4)c4c(N)ncnc4n3C)C2)[C@@H](O)C1 [II-82] | ≤ 10 | ≤ 10 | 10 to 1000 | –
19 | C=CC(=O)N[C@H](CO)C(=O)N1CCC(C#Cc2c(-c3ccc(Oc4cccc(C)n4)cc3)c3c(N)ncnc3n2C)CC1 [II-200, (R)-N-(1-(4-((4-amino-7-methyl-5-(4-((6-methylpyridin-2-yl)oxy)phenyl)-7H-pyrrolo[2,3-d]pyrimidin-6-yl)ethynyl)piperidin-1-yl)-3-hydroxy-1-oxopropan-2-yl)acrylamide] | 10 to 1000 | 10 to 1000 | – | 10 to 1000
20 | COc1cc(-c2c(C#C[C@@H]3[C@H]4CN(C(=O)/C=C/CN5CCC(F)C5)C[C@@H]34)n(C)c3ncnc(N)c23)ccc1Oc1cccc(C)n1 (stereo partly drawn) [II-238, (E)-1-((1R,5S,6s)-6-((4-amino-5-(3-methoxy-4-((6-methylpyridin-2-yl)oxy)phenyl)-7-methyl-7H-pyrrolo[2,3-d]pyrimidin-6-yl)ethynyl)-3-azabicyclo[3.1.0]hexan-3-yl)-4-(3-fluoropyrrolidin-1-yl)but-2-en-1-one] | 10 to 1000 | 10 to 1000 | – | 10 to 1000
21 | CN(C)CC=CC(=O)N1CC2C(C#Cc3c(-c4cccc5c4OCO5)c4c(N)ncnc4n3C)C2C1 (stereo not drawn) [II-115] | 10 to 1000 | ≤ 10 | 10 to 1000 | –
22 | CC(C)n1c(C#CC2C3CN(C(=O)C=CCN(C)C)CC23)c(-c2cccc3c2OCO3)c2c(N)ncnc21 (stereo not drawn) [II-116] | ≤ 10 | ≤ 10 | ≤ 10 | –
23 | C=CC(=O)N1C[C@@H]2[C@@H](C#Cc3c(-c4ccc(Oc5cnccn5)cc4)c4c(N)ncnc4n3C)[C@@H]2C1 [II-22] | 10 to 1000 | 10 to 1000 | 10 to 1000 | –
24 | COc1cc(Oc2ccccn2)ccc1-c1c(C#C[C@@H]2[C@H]3CN(C(=O)/C=C/CN(C)C)C[C@@H]23)n(C)c2ncnc(N)c12 [II-227, (E)-1-((1R,5S,6s)-6-((4-amino-5-(2-methoxy-4-(pyridin-2-yloxy)phenyl)-7-methyl-7H-pyrrolo[2,3-d]pyrimidin-6-yl)ethynyl)-3-azabicyclo[3.1.0]hexan-3-yl)-4-(dimethylamino) but-2-en-1-one] | 10 to 1000 | 10 to 1000 | – | 10 to 1000
